Here are results for 53 compounds from ChEMBL document CHEMBL5230084, “Indole-based derivatives as potential antibacterial activity against methicillin-resistance Staphylococcus aureus (MRSA)” (Eur J Med Chem, 2020).

The subject of assay [1] is Staphylococcus aureus. Kind of assay: Antibacterial activity against methicillin-resistant Staphylococcus aureus. The format is functional.
In assay [2] the test system is Staphylococcus aureus. Kind of assay: Antibacterial activity against methicillin-resistant Staphylococcus aureus 252 assessed as inhibition of bacterial growth. The format is functional.
The test system of assay [3] is Staphylococcus aureus. Kind of assay: Antibacterial activity against Staphylococcus aureus assessed as inhibition of bacterial growth. In kind it is functional.
Assay [4] in a line: Inhibition of methicillin-resistant Staphylococcus aureus pyruvate kinase.
The subject of assay [5] is Staphylococcus aureus. Kind of assay: Antibacterial activity against methicillin-resistant Staphylococcus aureus 12 assessed as inhibition of bacterial growth. The format is functional.
Assay [6] has as its system Staphylococcus aureus. Nature of the assay: Antibacterial activity against methicillin-resistant Staphylococcus aureus 8 assessed as inhibition of bacterial growth. The format is functional.
The subject of assay [7] is Staphylococcus aureus. Kind of assay: Antibacterial activity against methicillin-resistant Staphylococcus aureus 9 assessed as inhibition of bacterial growth. The format is functional.
The subject of assay [8] is Staphylococcus aureus. Kind of assay: Antibacterial activity against methicillin-resistant Staphylococcus aureus 4 assessed as inhibition of bacterial growth. The format is functional.
The subject of assay [9] is Staphylococcus aureus. Kind of assay: Antibacterial activity against methicillin-resistant Staphylococcus aureus 6 assessed as inhibition of bacterial growth. In kind it is functional.
The test system of assay [10] is Staphylococcus aureus. Kind of assay: Antibacterial activity against methicillin-resistant Staphylococcus aureus 11 assessed as inhibition of bacterial growth. In kind it is functional.
Assay [11] concerns Staphylococcus aureus. Nature of the assay: Antibacterial activity against methicillin-resistant Staphylococcus aureus 3 assessed as inhibition of bacterial growth. In kind it is functional.
Assay [12] deals with Staphylococcus aureus. Kind of assay: Antibacterial activity against Staphylococcus aureus ATCC 25923 assessed as inhibition of bacterial growth by agar well diffusion method. In kind it is functional.

Each structure is given as a SMILES string. In brackets after ≈: the same amount, converted by molar mass.

A word on the MIC: it is the lowest concentration found to suppress growth. The compound `c1ccc2c(-c3c[nH]c4ccccc34)c3c(nc2c1)[nH]c1ccccc13` came in with an MIC against Staphylococcus aureus [1] of 1 µg/mL (≈ 3 µM).

Regarding `O=C(NCC(NC(=O)C(=O)c1c[nH]c2ccc(Br)cc12)c1c[nH]c2ccc(Br)cc12)OC(F)(F)F` (stereo unspecified), the MIC in the assay on Staphylococcus aureus [2] is 1 µg/mL (≈ 1.62 µM).

In the assay with Staphylococcus aureus [1], `CC1=C(C(=O)O)N2C(=O)[C@@H](NC(=O)[C@H](N)c3ccccc3)[C@H]2SC1` [CEPHALEXIN ANHYDROUS] registered an MIC of 72 µg/mL (≈ 207 µM). For the compound `Clc1ccc(-n2nc(C3CCNCC3)cc2/C=C/c2c[nH]c3ccc(Cl)cc23)cc1`, inhibition of growth against Staphylococcus aureus [1] (MIC) required 1 µg/mL (≈ 2.29 µM). The same measure, in the same setting: the same measure for `CCn1cc(Br)c2c3c(-c4ccc(OC)cc4)occ3ccc21`: 1.4 µg/mL (≈ 3.78 µM). In turn, `OCc1cc(-c2c[nH]c3ccc(Br)cc23)nc2cc(Cl)ccc12` gave an MIC against Staphylococcus aureus [1] of less than 1 µg/mL. Same read-out and setting: the same measure for `Brc1ccc2[nH]cc(C3Nc4ccc(I)cc4[C@H]4OCO[C@@H]34)c2c1` (stereo partly specified): 0.31 µg/mL (≈ 0.624 µM). Same read-out and setting: to `Fc1ccc(Nc2nnc(Cc3c[nH]c4ccccc34)s2)c(F)c1` belongs 50 µg/mL (≈ 146 µM); to `c1ccc(Nc2nnc(Cc3c[nH]c4ccccc34)s2)cc1`, 25 µg/mL (≈ 81.6 µM). Still for that read-out and setting: to `CCn1cc(Br)c2c3c(-c4ccc(Cl)cc4)onc3ccc21` belongs 4.3 µg/mL (≈ 11.4 µM); to `Clc1ccc2c(c1)[C@H]1OCO[C@H]1C(c1c[nH]c3ccc(Br)cc13)N2` (stereo partly specified), 0.31 µg/mL (≈ 0.764 µM).

In the assay with Staphylococcus aureus [1], `COc1ccc2nc3[nH]c4ccccc4c3c(-c3c[nH]c4ccccc34)c2c1` gave an MIC of 4 µg/mL (≈ 11 µM).

For the compound `O=C(c1ccc(F)cc1)C1C(c2ccc(Br)cc2)CNC12C(=O)Nc1ccccc12` (stereo unspecified), the MIC with Staphylococcus aureus [3] came to 40 µg/mL (≈ 86 µM). Consider `Clc1ccc(Nc2nnc(Cc3c[nH]c4ccccc34)s2)c(Cl)c1`, for which, in the assay on Staphylococcus aureus [1], the minimal inhibitory concentration (MIC) amounted to 25 µg/mL (≈ 66.6 µM).

`CC[C@H]1OC(=O)[C@H](C)[C@@H](O[C@H]2C[C@@](C)(OC)[C@@H](O)[C@H](C)O2)[C@H](C)[C@@H](O[C@@H]2O[C@H](C)C[C@H](N(C)C)[C@H]2O)[C@](C)(O)C[C@@H](C)C(=O)[C@H](C)[C@@H](O)[C@]1(C)O` [ERYTHROMYCIN] gave a minimal inhibitory concentration (MIC) in the assay on Staphylococcus aureus [1] of 32 µg/mL (≈ 43.6 µM). The same measure, in the same setting: the same measure for `Fc1cccc(Nc2nnc(Cc3c[nH]c4ccccc34)s2)c1`: 25 µg/mL (≈ 77.1 µM); for `N=C(N)N/N=C/c1cn(S(=O)(=O)c2ccccc2)c2ccc(-c3ccc(OC(F)(F)F)cc3)cc12`: 3.13 µg/mL (≈ 6.24 µM).

By IC50 is commonly meant the midpoint of a concentration-inhibition curve. A lower IC50 goes with greater potency in that assay. `O=C1NC[C@@H](c2c[nH]c3cc(Br)ccc23)N[C@H]1c1c[nH]c2ccccc12` gave an IC50 in [4] of 16 nM. In the assay with Staphylococcus aureus [1], `Clc1ccc2nc(-c3c[nH]c4ccc(Cl)cc34)ccc2c1` registered a minimum inhibitory concentration (MIC) of 0.62 µg/mL (≈ 1.98 µM). Regarding `Cc1ccc(C(=O)OC[C@H]2O[C@H](n3c(-c4cc5ccccc5[nH]4)c(CC(=O)N(CC(=O)O)Cc4ccccc4)c4ccccc43)CC2OC(=O)c2ccc(C)cc2)cc1` (stereo partly specified), the minimal inhibitory concentration (MIC) in the assay on Staphylococcus aureus [5], with Staphylococcus aureus [6], in the assay on Staphylococcus aureus [7], with Staphylococcus aureus [8], in the assay on Staphylococcus aureus [9] and with Staphylococcus aureus [10] was 13 µg/mL (≈ 16.5 µM) in each case. The minimum inhibitory concentration (MIC) in the assay with Staphylococcus aureus [11] was determined as 13 µg/mL (≈ 16.5 µM). In turn, `CCCCn1cc(Br)c2c3c(-c4ccc(C)cc4)onc3ccc21` gave an MIC against Staphylococcus aureus [1] of 4.3 µg/mL (≈ 11.2 µM). The same measure, in the same setting: the same measure for `Fc1ccc(C(c2c[nH]c3ccc(Br)cc23)c2c[nH]c3ccc(Br)cc23)cc1`: 1 µg/mL (≈ 2.01 µM). `Clc1ccc(C(c2c[nH]c3ccc(Br)cc23)c2c[nH]c3ccc(Br)cc23)cc1` displayed an MIC against Staphylococcus aureus [1] of 1 µg/mL (≈ 1.94 µM). `Fc1ccc2[nH]cc(-c3ccc4cc(Cl)ccc4n3)c2c1` yielded a minimum inhibitory concentration (MIC) against Staphylococcus aureus [1] of 0.62 µg/mL (≈ 2.09 µM). The compound `Nc1nnc(Cc2c[nH]c3ccccc23)s1` had a minimal inhibitory concentration (MIC) against Staphylococcus aureus [1] of 3.12 µg/mL (≈ 13.6 µM). The same measure, in the same setting: the same measure for `N=C(N)N/N=C/c1cn(S(=O)(=O)c2ccccc2)c2ccc(-c3cccc(OC(F)(F)F)c3)cc12`: 3.13 µg/mL (≈ 6.24 µM). On the same count and under the same terms, to `CCCNc1nnc(Cc2c[nH]c3ccccc23)s1` belongs 6.25 µg/mL (≈ 22.9 µM). Still for that read-out and setting: to `Cc1ccc(-c2onc3ccc4c(c(Br)cn4C(C)(C)C)c23)cc1` belongs 4.3 µg/mL (≈ 11.2 µM); to `CCCCn1cc(Br)c2c3c(-c4ccc(Cl)cc4)onc3ccc21`, 5 µg/mL (≈ 12.4 µM). With `CC(C)(C)n1cc(Br)c2c3c(-c4ccc(Cl)cc4)onc3ccc21`, the lowest concentration to inhibit growth against Staphylococcus aureus [1] (MIC) was 4.3 µg/mL (≈ 10.7 µM). Regarding `N=C(N)N/N=C/c1cn(S(=O)(=O)c2ccccc2)c2ccc(-c3ccc(F)c(Cl)c3)cc12`, the MIC against Staphylococcus aureus [1] worked out at 3.13 µg/mL (≈ 6.66 µM). Take `O=C(c1ccc(F)cc1)C1C(c2ccc(Cl)cc2)CNC12C(=O)Nc1ccccc12` (stereo unspecified): the MIC with Staphylococcus aureus [3] came out at 30 µg/mL (≈ 71.3 µM). Compound `N=C(N)N/N=C/c1cn(S(=O)(=O)c2ccccc2)c2ccc(-c3ccc(C(F)(F)F)cc3)cc12` displayed an MIC in the assay on Staphylococcus aureus [1] of 3.13 µg/mL (≈ 6.45 µM).

Consider `CCCn1cc(Br)c2c3c(-c4ccc(OC)cc4)occ3ccc21`, for which the MIC against Staphylococcus aureus [1] was found to be 1.4 µg/mL (≈ 3.64 µM). Take `O=C(C1=NC(c2c[nH]c3cc(Br)ccc23)CN1)c1c[nH]c2ccccc12` (stereo unspecified) [SPONGOTINE A]: in assay [4], the midpoint of inhibition, the IC50, lay at 16 nM.

In the case of `CC(NC(=O)C(=O)c1c[nH]c2ccc(Br)cc12)c1c[nH]c2ccc(Br)cc12` (stereo unspecified), in the assay with Staphylococcus aureus [2], the MIC turned out to be 2 µg/mL (≈ 4.09 µM).

As to `Cc1ccc(C(=O)CC2C[C@H](n3c(-c4cc5ccccc5n4S(=O)(=O)c4ccc(C)cc4)c(CC(=O)OCc4ccccc4)c4ccccc43)O[C@@H]2COC(=O)c2ccc(C)cc2)cc1` (stereo partly specified), the MIC in the assay with Staphylococcus aureus [5], with Staphylococcus aureus [6], with Staphylococcus aureus [7], in the assay on Staphylococcus aureus [8], in the assay on Staphylococcus aureus [9] and in the assay on Staphylococcus aureus [10] was 3 µg/mL (≈ 3.39 µM) each time. Further, in the assay on Staphylococcus aureus [11], the MIC came to 3 µg/mL (≈ 3.39 µM).

Consider `CC(C)(C)OC(=O)NCC(NC(=O)c1c[nH]c2ccc(Br)cc12)c1c[nH]c2ccc(Br)cc12` (stereo unspecified), for which, in the assay with Staphylococcus aureus [2], the MIC stood at 2 µg/mL (≈ 3.47 µM). In turn, `Oc1cccc(C(c2c[nH]c3ccc(Br)cc23)c2c[nH]c3ccc(Br)cc23)c1` returned a minimal inhibitory concentration (MIC) against Staphylococcus aureus [1] of 1 µg/mL (≈ 2.02 µM). Regarding `Clc1ccc2c(Cl)cc(-c3c[nH]c4ccc(Br)cc34)nc2c1`, the MIC against Staphylococcus aureus [1] is less than 1 µg/mL.

As for `Fc1ccc2c(-c3ccc4cc(Cl)ccc4n3)c[nH]c2c1`, the lowest concentration to inhibit growth against Staphylococcus aureus [1] (MIC) was 0.62 µg/mL (≈ 2.09 µM). On the same count and under the same terms, to `CC(=O)/C(=C\c1cn(CC(=O)N2CCCCC2)c2ccccc12)n1c([N+](=O)[O-])cnc1C` belongs 1 µg/mL (≈ 2.3 µM). On to `COc1ccc(C2C([N+](=O)[O-])C(c3ccccc3)NC23C(=O)Nc2ccccc23)cc1` (stereo unspecified), for which the minimum inhibitory concentration (MIC) in the assay with Staphylococcus aureus [12] came to 5 µg/mL (≈ 12 µM). `COc1ccc(C2C([N+](=O)[O-])C(c3ccccc3)NC23C(=O)N(Cc2ccccc2)c2ccccc23)cc1` (stereo unspecified): in the assay with Staphylococcus aureus [12], the minimal inhibitory concentration (MIC) was determined as 5 µg/mL (≈ 9.89 µM).

In the assay with Staphylococcus aureus [1], `CCCCn1cc(Br)c2c3c(-c4ccc(OC)cc4)occ3ccc21` gave a minimum inhibitory concentration (MIC) of 1.4 µg/mL (≈ 3.51 µM). The same measure, in the same setting: the same measure for `COc1ccc(-c2occ3ccc4c(c(Br)cn4C(C)(C)C)c23)cc1`: 1.4 µg/mL (≈ 3.51 µM). The compound `O=C(C1=N[C@H](c2c[nH]c3cc(Br)ccc23)CN1)c1c[nH]c2cc(O)ccc12` registered an IC50 in assay [4] of 16 nM. Take `CC1(C)S[C@@H]2[C@H](NC(=O)[C@H](N)c3ccccc3)C(=O)N2[C@H]1C(=O)OCOC(=O)[C@@H]1N2C(=O)C[C@H]2S(=O)(=O)C1(C)C` [SULTAMICILLIN]: the MIC in the assay on Staphylococcus aureus [1] worked out at 25 µg/mL (≈ 42 µM). As for `Oc1ccc(C(c2c[nH]c3ccc(Br)cc23)c2c[nH]c3ccc(Br)cc23)cc1`, in the assay on Staphylococcus aureus [1], it took 1 µg/mL (≈ 2.02 µM) to inhibit growth (MIC).

`COC(=O)c1ccc(-c2ccc3c(c2)c(/C=N/NC(=N)N)cn3S(=O)(=O)c2ccccc2)cc1` gave an MIC in the assay on Staphylococcus aureus [1] of 3.13 µg/mL (≈ 6.58 µM). `O=C(C1=N[C@H](c2c[nH]c3cc(Br)ccc23)CN1)c1c[nH]c2ccccc12`: inhibition in assay [4] was half-maximal at 16 nM (IC50). For `CCOC(=O)CN(CCc1c(I)n([C@@H]2CC(OC(=O)c3ccc(C)cc3)[C@@H](COC(=O)c3ccc(C)cc3)O2)c2ccccc12)Cc1ccccc1` (stereo partly specified), the minimum inhibitory concentration (MIC) with Staphylococcus aureus [5], in the assay with Staphylococcus aureus [6], with Staphylococcus aureus [7], in the assay with Staphylococcus aureus [8], with Staphylococcus aureus [9] and with Staphylococcus aureus [10] was 6 µg/mL (≈ 7.36 µM) throughout. Also, the minimum inhibitory concentration (MIC) in the assay on Staphylococcus aureus [11] turned out to be 6 µg/mL (≈ 7.36 µM). For `Clc1ccc2nc(-c3c[nH]c4ccc(Br)cc34)ccc2c1`, it took 0.62 µg/mL (≈ 1.73 µM) to inhibit growth with Staphylococcus aureus [1] (MIC).
